Results: patent US20250163116A1, “NEW METHOD TO TREAT INFECTIOUS DISEASES” (INSERM (INSTITUT NATIONAL DE LA SANTÉ ET DE LA RECHERCHE …, priority 2022, published 2025)

Key:
[1] = test system: HDMECs infected with Nm 2C4.3; test: Integrity of HDMEC monolayers infected with N. meningitidis (VE-cadherin at intercellular junctions, immunofluorescence); assay type: cell-based, human; settings: 1 μg/mL added 30 min after initiation of Nm infection, 2 h 30
Protocol: FIG. 1. Exogenous ANGPTL4 exerts protective effects on dermal microvascular endothelial cells infected by N. meningitidis. A. HDMECs were infected with Nm 2C4.3 for 30 min and treated with 1 μg/mL of recombinant human ANGPTL4 for 2 h 30. Cells were fixed and stained for cellular actin, VE-cadherin and DAPI and analyzed by fluorescent microscopy. Quantifications of VE-cadherin enrichment at intercellular junctions and of intercellular spaces area were performed on 30 fields with Image J software. Kruskal-Wallis test ** P<0.001; P<0.0001. B. HDMEC were either uninfected or infected with N. meningitidis 2C4.3 for 30 min and treated with 1 μg mL−1 of recombinant human ANGPTL4, its N-terminal portion (nANGPTL4) or its C-terminal portion (cANGPTL4) for 2 h 30. Caspase-3/7 reagent was added to detect apoptosis in real time over 9 h using the IncuCyte® Live-Cell Analysis System
FIG. 2: Vascular protection is conferred by the N-terminal part of ANGPTL4. A, Schematic representation of ANGPTL4 structure. ANGPTL4 contains a N-terminal portion (nANGPTL4, aa 26-164) linked to a C-terminal portion (cANGPTL4, aa 164-406) by a cleavable linker. nANGPTL4 contains a highly conserved lipoprotein lipase (LPL) binding domain (aa 44-55), two cysteines on position 76 and 80 involved in protein oligomerization and a coiled-coil domain (aa 100-143). The C-terminal portion encodes a fibrinogen-like domain. B, HDMECs were infected with Nm 2C4.3 for 30 min and treated with 1 μg/mL of recombinant human ANGPTL4, nANGPTL4 or cANGPTL4 for 2 h 30. Cells were fixed and stained for cellular actin, VE-cadherin and DAPI and analyzed by fluorescent microscopy. B. Quantifications of VE-cadherin enrichment at intercellular junctions and of intercellular spaces area were performed on 30 fields with Image J software. Kruskal-Wallis test ** P<0.001, *** P<0.0001 of four independent experiments performed in triplicate.
FIG. 3: Vascular protection is conferred by a novel binding motif (aa 66-80) present in the N-terminal part of ANGPTL4. A, the indicated peptides were derived from nANGPTL4. B, HDMECs were infected with Nm 2C4.3 for 30 min and treated with 1 μg/mL of each peptides. Quantifications of VE-cadherin enrichment at intercellular junctions was performed on 30 fields with Image J software.
FIG. 4: Vascular protection is conferred by interaction of nANGPTL4 with Syndecan-4. A, HDMECs were infected with Nm 2C4.3 for 30 min and treated with 1 μg/mL of recombinant human ANGPTL4, nANGPTL4 or cANGPTL4 in the absence or in the presence of anti-SDC4 antibody for 2 h 30. Cells were fixed and stained for cellular actin, VE-cadherin and DAPI and analysed by fluorescent microscopy. Quantifications of VE-cadherin enrichment at intercellular junctions and of intercellular spaces area were performed on 30 fields with Image J software. Kruskal-Wallis test ** P<0.001, **** P<0.00001, ns1 P=0.2172; ns2 P>0.999 of four independent experiments performed in triplicate. B, HDMECs were transfected with small interfering RNA (siRNA) against SDC4 or non-targeting siRNA controls for 48 h, infected with Nm 2C4.3 for 30 min and treated with 1 μg/mL of recombinant human ANGPTL4, for 2 h 30. Quantifications of VE-cadherin enrichment at intercellular junctions and of intercellular spaces area were performed on 30 fields with Image J software. Kruskal-Wallis test ** P<0.001, *** P<0.0001, of two independent experiments performed in triplicate.
The day of infection, a suspension of the bacteria from an overnight culture on GCB agar plate was adjusted to OD600=0.05 and incubated for 2 h at 37° C. in a pre-warmed cell culture medium. Cells were infected with bacteria at a multiplicity of infection (MOI) of 100 bacteria per cell (OD=0.1) for 30 minutes, washed twice to remove non-adherent bacteria and infection was allowed to proceed for various periods of time. Cells were then washed and fixed in 4% paraformaldehyde for immunofluorescence analysis. […]

[2] = test system: SCID mice grafted with human skin infected with Nm 2C4.3; test: Vascular lesions in SCID mice grafted with human skin infected with N. meningitidis (4 h); assay type: in vivo; settings: data not shown
Protocol: FIG. 7: ANGPTL4 reduces signs of thrombosis, vascular injury and inflammation. A-D, SCID mice grafted with human skins were infected intravenously with Nm 2C4.3 wild-type strain (5×10^6 bacteria) or left uninfected. A period of 30 min or 2 h after bacterial challenge, mice received 1 μg of recombinant human ANGPTL4, nANGPTL4 or cANGPTL4 intravenously or the vehicle as a control. Mice were killed at 4 h post-challenge. This experiment was performed twice with n=3 or 4 mice per group, using skin from two different donors. A, A schematic representation of the protocols used in vivo. B, Control bacteraemia 4 h post-infection (mean±s.e.m.). C, Bacterial colonization within the skin grafts as assessed by immunofluorescence analysis was quantified using ImageJ software as the ratio between bacterial surface colonization and the lumen surface of the vessels. A total of 30-50 vessels per mouse were analysed. Error bars show mean±s.e.m. D, Thrombus formation within the skin grafts was assessed by immunofluorescence analysis and quantified using ImageJ as the ratio between thrombus surfaces and the lumen surface of the vessels. A total of 30-50 vessels per mouse were analysed. Error bars show mean±s.e.m.; *** P<0.0001; ns P=0.0541 two-tailed Student's t-test.
Six-week-old CB17/Icr-Prkdcscid female mice were obtained from Janvier Labs. Human skin tissues were obtained from adult patients undergoing plastic surgery in the Service de Chirurgie Plastique et Reconstructive of the Groupe Hospitalier Saint-Joseph. […] Experimental procedures were performed as previously described in accordance with the guidelines of the Institut National de la Santé et de la Recherche Médicale and conformed to the European ethical legislation (Directive 2010/63/EU). The experimental protocol was approved by the Animal Experimentation Ethics Committee of the Université Paris Descartes (consent forms CEEA34.O.J.L.039.12 and 2018012515596498). […]. A skin flap was created and a full thickness human skin graft was placed onto the wound bed. The transplants were held in place with 6-0 non-absorbable monofilament suture materials, and the flap was then sutured above the transplant. Grafted mice were infected 4-6 weeks after human skin transplantation. N. meningitidis was grown overnight at 37° C. on GCB agar plates prepared without iron and supplemented with 15 μM deferoxamine (Desferal, Novartis). Bacterial colonies were harvested and cultured in RPMI media with 1% BSA medium and 0.06 μM deferoxamine with gentle agitation to reach the exponential phase of growth. Bacteria were then resuspended in physiological saline solution. Mice were infected intravenously with 200 μl (5×10^6 bacteria) of this bacterial suspension. A 10 mg dose of human holotransferrin (R&D Systems) was administered intraperitoneally just before infection. Mice were killed at 4 h after infection. Human skin grafts were carefully collected using a sterile cutter. The tissue was washed in PBS and fixed overnight at 4° C. in 4% paraformaldehyde in phosphate buffer. After washing in phosphate buffer, the specimens were embedded in OCT medium and then frozen at −80° C. Sections of the dermis (7 μm thick) were immobilized on Superfrost Plus microscope slides and subjected to immunofluorescence analysis. Sections were incubated with the primary antibodies for 1 h in PBS/3% BSA then DAPI was added to Alexa-conjugated secondary antibodies for 1 h. After additional washing, coverslips were mounted in glycergel (Dako) and were further analysed using a slide scanner (Lamina, Perkin Elmer). Analysis of the images was performed using ImageJ software (NIH). […]

LSALERRLSA (Peptide P8)
protective effect on monolayer integrity (adherens junctions, cell detachment) of infected HDMECs [1]: no effect

LSALERRLSACGS [Peptide P12]
protective effect on monolayer integrity (adherens junctions, cell detachment) of infected HDMECs [1]: inhibits infection-induced damages

PEVLHSLQTQLKAQNSRIQQLFHKVAQQQRHLEKQHLRIQHLQSQFGLLD (Peptide P2)
protective effect on monolayer integrity (adherens junctions, cell detachment) of infected HDMECs [1]: no significant effect

QLSALERRLSACGSAC (Peptide P6)
protective effect on monolayer integrity (adherens junctions, cell detachment) of infected HDMECs [1]: completely inhibited infection-induced damages

REHAERTRSQLSALERRL (Peptide P5)
protective effect on monolayer integrity (adherens junctions, cell detachment) of infected HDMECs [1]: no effect

REHAERTRSQLSALERRLSACGSACQGT (Peptide P4)
protective effect on monolayer integrity (adherens junctions, cell detachment) of infected HDMECs [1]: as efficient as P1 in providing protection

RTRSQLSALERRLSA (Peptide P7)
protective effect on monolayer integrity (adherens junctions, cell detachment) of infected HDMECs [1]: no effect

SALERRLSACGSAC [Peptide P13]
protective effect on monolayer integrity (adherens junctions, cell detachment) of infected HDMECs [1]: inhibits infection-induced damages

WDEMNVLAHGLLQLGQGL (Peptide P3)
protective effect on monolayer integrity (adherens junctions, cell detachment) of infected HDMECs [1]: no protective effects

WDEMNVLAHGLLQLGQGLREHAERTRSQLSALERRLSAAGSAAQGT (Peptide P1 C76A, C80A) [Peptide P1 C76A/C80A]
protective effect on monolayer integrity (adherens junctions, cell detachment) of infected HDMECs [1]: efficiently provided cytoprotection to infection-induced damages

B1: rhANGPTL8: recombinant human ANGPTL8 (9983-AN) from R&D Systems (protein, UniProt Q6UXH0 22-198, looked up)
Angiopoietin-like protein 8: APMGGPELAQHEELTLLFHGTLQLGQALNGVYRTTEGRLTKARNSLGLYGRTIELLGQEVSRGRDAAQELRASLLETQMEEDILQLQAEATAEVLGEVAQAQKVLRDSVQRLEVQLRSAWLGPAYREFEVLKAHADKQSHILWALTGHVQRQRREMVAQQHRLRQIQERLHTAALPA
protective effect on monolayer integrity (adherens junctions, cell detachment) of infected HDMECs [1]: no protective effect | protective effects on vascular alteration, thrombosis or the release of inflammatory markers [2]: no protective effects

B2: rhANGPTL3: recombinant human ANGPTL3 (3829-AN) from R&D Systems (protein, UniProt Q9Y5C1 17-460, looked up)
Angiopoietin-related protein 3: SRIDQDNSSFDSLSPEPKSRFAMLDDVKILANGLLQLGHGLKDFVHKTKGQINDIFQKLNIFDQSFYDLSLQTSEIKEEEKELRRTTYKLQVKNEEVKNMSLELNSKLESLLEEKILLQQKVKYLEEQLTNLIQNQPETPEHPEVTSLKTFVEKQDNSIKDLLQTVEDQYKQLNQQHSQIKEIENQLRRTSIQEPTEISLSSKPRAPRTTPFLQLNEIRNVKHDGIPAECTTIYNRGEHTSGMYAIRPSNSQVFHVYCDVISGSPWTLIQHRIDGSQNFNETWENYKYGFGRLDGEFWLGLEKIYSIVKQSNYVLRIELEDWKDNKHYIEYSFYLGNHETNYTLHLVAITGNVPNAIPENKDLVFSTWDHKAKGHFNCPEGYSGGWWWHDECGENNLNGKYNKPRAKSKPERRRGLSWKSQNGRLYSIKSTKMLIHPTDSESFE
protective effect on monolayer integrity (adherens junctions, cell detachment) of infected HDMECs [1]: no protective effect | protective effects on vascular alteration, thrombosis or the release of inflammatory markers [2]: no protective effects
